From publication PMC4632126, “High specific selectivity and Membrane-Active Mechanism of the synthetic centrosymmetric α-helical peptides with Gly-Gly pairs” (Scientific Reports, 2015) come the findings set out here.

Like-named read-outs stand apart in the source and are kept apart here. Where no end group is shown, it is not given here. Bounds are passed on as bounds.

For one data set, the system named is S. typhimurium ATCC14028. The format is cell-based, Salmonella typhimurium. The settings on record: ATCC14028, 5 h. The method, then: (§1) Minimal bactericidal concentrations (MBCs) were measured using the method which has been adopted from National Committee for Clinical Laboratory Standards (NCCLS), with modifications. In short, 50 μL peptide solutions were pipetted into microtiter plates at various concentrations ranging from 1 to 128 μM. Freshly grown bacteria were added to the each well in a density of 0.5–1 × 10^6 CFUmL^−1. Microtiter plated was incubated at 37 °C for 5 h. Fifty microliters of each incubation mixture was further serially diluted (up to 10^−3 of the initial bacterial concentration), transferred on agar plates and incubated overnight. On the following day, the number of colonies was evaluated and the initial CFU/well retrospectively calculated. The minimum bactericidal concentrations (μM) were determined as the lowest concentration of the peptides that prevented more than 99.9% bacteria growth.

A further data set relates to S. aureus ATCC29213. The class given is cell-based, Staphylococcus aureus. The settings on record: ATCC 29213, 5 h. The method, then: as §1
For data set [1], the system named is human red blood cells (hRBCs). Particulars: red cells of human, 1 h.
Protocol: (§3) The hemolytic activity of each peptide was evaluated using a modified method, as described previously[21][22]. […] Then, the collected hRBCs were washed three times with PBS (pH 7.2), centrifuged at 1000 × g for 5 min, and resuspended in PBS (final concentration, approximately 1%). Next, 50 μL of the hRBC suspension was placed into a 96-well cell culture plate with 50 μL of test peptide solution in PBS at different concentrations, and the mixture was incubated at 37 °C for 1 h. After incubation, the plate was centrifuged at 1000 × g for 5 min, the supernatant was transferred to a new 96-well cell culture plate, and the release of hemoglobin was measured by monitoring optical density (OD) at 576 nm. Untreated hRBCs suspension was used as a negative control, and the hRBCs treated with 0.1% Triton X-100 were employed as positive controls. Each test was reproduced at least 3 times using 6 replicates. Percent hemolysis was calculated using the following equation:
Another data set relates to S. epidermidis ATCC12228. The class given is cell-based, Staphylococcus epidermidis. Particulars: ATCC12228, 5 h.
A further data set relates to E. coli UB1005. The format is cell-based, Escherichia coli. Particulars: UB1005, 5 h. The method, then:
as §1

Data set [2] concerns E. coli ATCC 25922. The class given is cell-based, Escherichia coli. The settings on record: ATCC 25922, 5 h. The method, then: as §1
For data set [3], the system named is all of the 6 strains tested. Kind of data set: Geometric mean of MBCs and therapeutic index, all strains. The class given is cell-based. Particulars: MHC/GM for all 6 strains; >128 counted as 256 μM. The method, then: as §1, with “In” for “Minimal bactericidal concentrations (MBCs) were measured using the method which has been adopted from National Committee for Clinical Laboratory Standards (NCCLS), with modifications. In”
(§2) The therapeutic index (TI) is calculated by the ration of the minimum hemolytic concentration (MHC) to the geometric mean of the MBC (GM) to evaluate cell selectivity of peptides.

For data set [4], the system named is 3 gram-negative strains tested. In words: Geometric mean of MBCs and therapeutic index, gram-negative strains. The format is cell-based. The settings on record: MHC/GM for 3 gram-negative strains; >128 counted as 256 μM. The method, then:
as §1, with “In” for “Minimal bactericidal concentrations (MBCs) were measured using the method which has been adopted from National Committee for Clinical Laboratory Standards (NCCLS), with modifications. In”
as §2

Data set [5] concerns 3 gram-positive strains tested. The settings on record: MHC/GM for 3 gram-positive strains; >128 counted as 256 μM. The method, then: as §1, with “In” for “Minimal bactericidal concentrations (MBCs) were measured using the method which has been adopted from National Committee for Clinical Laboratory Standards (NCCLS), with modifications. In”
as §2

In data set [6] the test system is E. coli ATCC 25922. The format is cell-based, Escherichia coli. The method, then:
as §1, with “In short, 50 μL peptide solutions were pipetted into microtiter plates at various concentrations ranging from 1 to 128 μM.” left out, “growth. […] The salt sensitivity of the peptides was measured using a modified method, as described previously. […] The subsequent steps were consistent with the MBCs determination method.” for “growth.”

Data set [7] deals with E. coli ATCC 25922. The class given is cell-based, Escherichia coli. Particulars: ATCC 25922, 24 h. The method, then: The checkerboard titration method is commonly used to evaluate the synergy of different antibacterial combinations. First, 2-fold serial dilutions of the antibiotics and antimicrobial peptides were prepared. Subsequently, 50 μL each of different concentrations of antibiotics and of antimicrobial peptides was mixed and added into 100 μL of bacterial solution (containing approximately 0.5–1 × 10^6 CFU mL^−1) in each well of a 96-well plate. The plates were then incubated at 37 °C for 24 h. The subsequent steps were consistent with the MBCs determination method. The fractional inhibitory concentration (FIC) index (FICI) was calculated as follows: An FICI < 0.5 is considered to indicate synergy; 0.5 < FICI < 1.0 is considered additive; 1.0 < FICI < 4.0 is considered indifferent; and an FICI > 4.0 is considered antagonism.

In data set [8] the test system is human red blood cells (hRBCs). In words: Hemolytic activity. Particulars: concentration causing 5% hemolysis of human red blood cells; about 1% hRBC in PBS, 37 °C, 1 h, OD 576 nm.
Protocol: as §3
For another data set, the system named is S. aureus ATCC 29213. The format is cell-based, Staphylococcus aureus. Particulars: ATCC 29213, 5 h. The method, then: as §1, with “In short, 50 μL peptide solutions were pipetted into microtiter plates at various concentrations ranging from 1 to 128 μM.” left out, “growth. […] The salt sensitivity of the peptides was measured using a modified method, as described previously. […] The subsequent steps were consistent with the MBCs determination method.” for “growth.”

For data set [9], the system named is Methicillin-resistant S. aureus ATCC 43300. The settings on record: S. aureus 43300 (methicillin-resistant); lowest concentration preventing more than 99.9% growth; 37 °C, 5 h; representative of three trials. The method, then:
as §1, with “In” for “Minimal bactericidal concentrations (MBCs) were measured using the method which has been adopted from National Committee for Clinical Laboratory Standards (NCCLS), with modifications. In”

Data set [10] concerns the molecule itself. In words: FRET or BRET; FAM-labeled GG3 (donor) with TAMRA-labeled GG3 (acceptor) and unlabeled GG3, in POPG or POPC/POPG (3:1) vesicles; total peptide and FAM-peptide concentrations kept constant, mole fraction of TAMRA-peptide varied; 10 mM Tris, 150 mM NaCl, 0.1 mM EDTA, pH 7.4; excitation 492 nm; membrane-bound state. In general terms: In BRET a luciferase serves as donor, and the signal depends on an acceptor being close.

Protocol for S. epidermidis ATCC12228: In short, 50 μL peptide solutions were pipetted into microtiter plates at various concentrations ranging from 1 to 128 μM. Freshly grown bacteria were added to the each well in a density of 0.5–1 × 10^6 CFUmL^−1. Microtiter plated was incubated at 37 °C for 5 h. Fifty microliters of each incubation mixture was further serially diluted (up to 10^−3 of the initial bacterial concentration), transferred on agar plates and incubated overnight. On the following day, the number of colonies was evaluated and the initial CFU/well retrospectively calculated. The minimum bactericidal concentrations (μM) were determined as the lowest concentration of the peptides that prevented more than 99.9% bacteria growth. Each test was reproduced at least 3 times using 6 replicates.

AKLWLKA-NH2 [AA1]: the Minimum bactericidal concentration in the data set with S. typhimurium ATCC14028, with S. aureus ATCC29213, with S. epidermidis ATCC12228, in the data set with E. coli UB1005 and in the data set with E. coli ATCC 25922 [2] was more than 128 µM in each case. Further, the “MHC (minimum hemolytic concentration)” value in data set [1] is more than 128 µM.

Take GKLWGLKGKLWGLKGKLWGLK-NH2 [GG3s1]: the Minimum bactericidal concentration in the data set on S. typhimurium ATCC14028 came out at 16 µM; with S. aureus ATCC29213, 128 µM; in the data set on S. epidermidis ATCC12228, 128 µM; with E. coli UB1005, 4 µM; in the data set with E. coli ATCC 25922 [2] it was 4 µM. The “MHC (minimum hemolytic concentration)” value in [1] is more than 128 µM. In [3], the “TI (therapeutic index), all strains” value came out at 8.98. In addition, the “TI (therapeutic index), gram-negative” value in data set [4] was 40.31. In [5], the “TI (therapeutic index), gram-positive” value turned out to be 2.

In the case of GKLWLKG-NH2 [GG1], the Minimum bactericidal concentration in the data set with S. typhimurium ATCC14028, in the data set with S. aureus ATCC29213, with S. epidermidis ATCC12228, with E. coli UB1005 and with E. coli ATCC 25922 [2] was more than 128 µM in each case. The “MHC (minimum hemolytic concentration)” value in data set [1] is more than 128 µM. For the same molecule, the “MBC with FeCl3” value against E. coli ATCC 25922 [6] (E. coli ATCC 25922, 4 μM FeCl3) was more than 128 µM. Besides, in the data set with E. coli ATCC 25922 [6] (E. coli ATCC 25922, 6 μM NH4Cl), the “MBC with NH4Cl” value was more than 128 µM. Moreover, the “MBC with ZnCl2” value in the data set on E. coli ATCC 25922 [6] (E. coli ATCC 25922, 8 μM ZnCl2) is more than 128 µM. Besides, the “MBC with MgCl2” value in the data set on E. coli ATCC 25922 [6] (E. coli ATCC 25922, 1 mM MgCl2) was more than 128 µM. Also, in the data set on E. coli ATCC 25922 [6] (E. coli ATCC 25922, 2 mM CaCl2), the “MBC with CaCl2” value was more than 128 µM. Also, the “MBC with KCl” value against E. coli ATCC 25922 [6] (E. coli ATCC 25922, 4.5 mM KCl) is more than 128 µM. For the same molecule, the “MBC with NaCl” value with E. coli ATCC 25922 [6] (E. coli ATCC 25922, 150 mM NaCl) was more than 128 µM. The “MBC, control” value with E. coli ATCC 25922 [6] (E. coli ATCC 25922, without physiological salts) is more than 128 µM.

GKLWLKGGKLWLKG-NH2 [GG2] displayed a Minimum bactericidal concentration in the data set with S. typhimurium ATCC14028 of 64 µM. Also, in the data set with E. coli ATCC 25922 [7], the “FIC index in combination with Ceftazidime” value was 2, the “FIC index in combination with Chloramphenicol” value came to 1, the “FIC index in combination with Ciprofloxacin” value stood at 2 and the “FIC index in combination with Streptomycin” value worked out at 1. In addition, in the data set with S. aureus ATCC29213, the Minimum bactericidal concentration is 128 µM. The “MHC (minimum hemolytic concentration)” value in data set [8] was more than 128 µM. Besides, the Minimum bactericidal concentration with S. epidermidis ATCC12228 stood at 128 µM. The “TI (therapeutic index), all strains” value in [3] stood at 5.66. Also, in the data set on S. aureus ATCC 29213, the “MBC with CaCl2” value is more than 128 µM, the “MBC with FeCl3” value was 128 µM, the “MBC with KCl” value came out at 128 µM and the “MBC with MgCl2” value is more than 128 µM. Also, in the data set on S. aureus ATCC 29213, the “MBC with NH4Cl” value was found to be 128 µM; the “MBC with NaCl” value was more than 128 µM; the “MBC with ZnCl2” value was 128 µM; the “MBC, control” value amounted to 128 µM. Moreover, in the data set on E. coli ATCC 25922 [6] (ATCC 25922, 5 h), the “MBC with CaCl2” value came to 16 µM, the “MBC with FeCl3” value was found to be 4 µM, the “MBC with KCl” value stood at 4 µM and the “MBC with MgCl2” value was 16 µM. In addition, in the data set on E. coli ATCC 25922 [6] (ATCC 25922, 5 h), the “MBC with NH4Cl” value stood at 4 µM; the “MBC with NaCl” value is more than 128 µM; the “MBC with ZnCl2” value worked out at 4 µM; the “MBC, control” value stood at 4 µM. The “TI (therapeutic index), gram-negative” value in [4] was 12.70. Moreover, in data set [5], the “TI (therapeutic index), gram-positive” value is listed as 2.52. Also, in data set [9], the Minimum bactericidal concentration was determined as 64 µM. In the data set with E. coli UB1005, this molecule returned a Minimum bactericidal concentration of 32 µM. Further, the Minimum bactericidal concentration in the data set with E. coli ATCC 25922 [2] is 4 µM.

Molecule GKLWLKGGKLWLKGGKLWLKG-NH2 [GG3] showed a Minimum bactericidal concentration with S. typhimurium ATCC14028 of 4 µM. In the data set on E. coli ATCC 25922 [7], the “FIC index in combination with Ceftazidime” value was determined as 0.75, the “FIC index in combination with Chloramphenicol” value was determined as 1, the “FIC index in combination with Ciprofloxacin” value is recorded as 1 and the “FIC index in combination with Streptomycin” value is reported as 0.5. This molecule returned a Minimum bactericidal concentration in the data set with S. aureus ATCC29213 of 16 µM. In addition, the “MHC (minimum hemolytic concentration)” value in data set [8] was more than 128 µM. This molecule gave a Minimum bactericidal concentration with S. epidermidis ATCC12228 of 32 µM. Also, the “TI (therapeutic index), all strains” value in data set [3] worked out at 32. In the data set with S. aureus ATCC 29213, the “MBC with CaCl2” value was found to be 16 µM, the “MBC with FeCl3” value was determined as 16 µM, the “MBC with KCl” value was 8 µM and the “MBC with MgCl2” value worked out at 16 µM. Also, in the data set with S. aureus ATCC 29213, the “MBC with NH4Cl” value worked out at 16 µM; the “MBC with NaCl” value stood at 16 µM; the “MBC with ZnCl2” value was found to be 16 µM; the “MBC, control” value was 16 µM. For the same molecule, in the data set with E. coli ATCC 25922 [6] (ATCC 25922, 5 h), the “MBC with CaCl2” value turned out to be 2 µM, the “MBC with FeCl3” value was 1 µM, the “MBC with KCl” value worked out at 2 µM and the “MBC with MgCl2” value was determined as 2 µM. Moreover, in the data set on E. coli ATCC 25922 [6] (ATCC 25922, 5 h), the “MBC with NH4Cl” value amounted to 2 µM; the “MBC with NaCl” value stood at 2 µM; the “MBC with ZnCl2” value was 2 µM; the “MBC, control” value turned out to be 2 µM. Also, the “TI (therapeutic index), gram-negative” value in data set [4] was determined as 101.59. For the same molecule, in data set [5], the “TI (therapeutic index), gram-positive” value is listed as 10.08. This molecule also showed a Minimum bactericidal concentration in data set [9] of 32 µM. Further, in the data set with E. coli UB1005, the Minimum bactericidal concentration is 2 µM. In the data set with E. coli ATCC 25922 [2], the Minimum bactericidal concentration stood at 2 µM.

B1: Gly-rich centrosymmetric peptide GG3 (peptide)
peptide: GKLWLKGGKLWLKGGKLWLKG-NH2
modifications: not fully specified
notes: designed peptide from the template (y+hhh+y)n, three repeats of GKLWLKG; In the FRET experiment, FAM-labeled, TAMRA-labeled and unlabeled GG3 were mixed on lipid vesicles; also called FAM-labeled GG3; TAMRA-labeled GG3; source: synthetic peptide (GL Biochem Corporation, Shanghai)
On to B1, for which the binding result in data set [10] was “binds”.
